{"source": "ChEMBL document CHEMBL5370622", "about": "(J Nat Prod, 2023)", "key": {"[1]": {"target": "Dual specificity tyrosine-phosphorylation-regulated kinase 1B (Homo sapiens) (UniProt Q9Y463)", "sequence (Q9Y463 whole entry, looked up)": "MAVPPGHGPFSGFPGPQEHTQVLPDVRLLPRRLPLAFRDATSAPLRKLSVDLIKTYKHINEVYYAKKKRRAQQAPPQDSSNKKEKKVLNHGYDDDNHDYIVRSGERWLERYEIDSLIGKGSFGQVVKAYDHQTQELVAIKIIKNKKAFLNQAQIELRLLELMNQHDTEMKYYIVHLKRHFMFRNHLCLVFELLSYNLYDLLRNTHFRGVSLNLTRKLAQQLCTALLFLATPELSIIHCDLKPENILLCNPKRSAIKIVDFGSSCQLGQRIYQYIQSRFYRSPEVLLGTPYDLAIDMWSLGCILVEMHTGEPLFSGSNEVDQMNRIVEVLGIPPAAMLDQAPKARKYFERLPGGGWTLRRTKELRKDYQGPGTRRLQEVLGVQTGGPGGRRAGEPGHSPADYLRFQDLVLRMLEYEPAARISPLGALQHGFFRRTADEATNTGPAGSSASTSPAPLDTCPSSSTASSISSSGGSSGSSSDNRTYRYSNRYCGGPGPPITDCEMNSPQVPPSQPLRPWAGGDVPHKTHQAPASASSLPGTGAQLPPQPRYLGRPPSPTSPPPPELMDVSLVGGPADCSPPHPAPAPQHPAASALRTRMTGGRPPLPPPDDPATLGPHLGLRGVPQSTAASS", "assay": "Inhibition of human DYRK1B at 50 nM in presence of ATP by radiometric hotspot kinase assay relative to control"}, "[2]": {"target": "T1, Dual specificity tyrosine-phosphorylation-regulated kinase 2 (Homo sapiens) (UniProt Q92630)", "T1 sequence (whole entry)": "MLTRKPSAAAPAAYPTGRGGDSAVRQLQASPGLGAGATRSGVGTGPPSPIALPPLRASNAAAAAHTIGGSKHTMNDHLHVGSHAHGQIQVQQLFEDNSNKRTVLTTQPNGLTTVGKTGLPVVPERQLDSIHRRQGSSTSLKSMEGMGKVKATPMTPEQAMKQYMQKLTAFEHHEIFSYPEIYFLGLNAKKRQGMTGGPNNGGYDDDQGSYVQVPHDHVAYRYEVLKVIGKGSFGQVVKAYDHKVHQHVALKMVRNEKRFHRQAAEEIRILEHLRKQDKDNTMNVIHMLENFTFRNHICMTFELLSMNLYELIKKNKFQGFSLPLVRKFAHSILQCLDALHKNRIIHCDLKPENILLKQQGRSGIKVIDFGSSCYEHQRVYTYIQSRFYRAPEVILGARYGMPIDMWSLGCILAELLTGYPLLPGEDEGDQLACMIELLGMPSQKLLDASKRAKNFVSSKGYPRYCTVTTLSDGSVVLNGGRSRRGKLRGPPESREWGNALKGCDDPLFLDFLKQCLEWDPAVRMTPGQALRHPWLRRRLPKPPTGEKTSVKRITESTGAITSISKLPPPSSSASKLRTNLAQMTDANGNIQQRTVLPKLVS", "assay": "Inhibition of human DYRK2 at 50 nM in presence of ATP by radiometric hotspot kinase assay relative to control"}, "[3]": {"target": "Dual specificity tyrosine-phosphorylation-regulated kinase 1A (Homo sapiens) (UniProt Q13627)", "assay": "Inhibition of human DYRK1A at 50 nM in presence of ATP by radiometric hotspot kinase assay relative to control"}, "[4]": {"assay": "Binding affinity to human full length […] gene fusion of J-PKAc alpha chimeric protein expressed in Escherichia coli BL21 (DE3) cells assessed as dissociation constant by MST assay"}, "[5]": {"assay": "Inhibition of human full length […] gene fusion of J-PKAc alpha chimeric protein expressed in Escherichia coli BL21 (DE3) cells using CREB KRREILSRRPSYR-biotinylated peptide as substrate incubated for 45 mins in presence of ATP by ELISA"}, "[6]": {"target": "T2, Dual specificity tyrosine-phosphorylation-regulated kinase 3 (Homo sapiens) (UniProt O43781)", "T2 sequence (whole entry)": "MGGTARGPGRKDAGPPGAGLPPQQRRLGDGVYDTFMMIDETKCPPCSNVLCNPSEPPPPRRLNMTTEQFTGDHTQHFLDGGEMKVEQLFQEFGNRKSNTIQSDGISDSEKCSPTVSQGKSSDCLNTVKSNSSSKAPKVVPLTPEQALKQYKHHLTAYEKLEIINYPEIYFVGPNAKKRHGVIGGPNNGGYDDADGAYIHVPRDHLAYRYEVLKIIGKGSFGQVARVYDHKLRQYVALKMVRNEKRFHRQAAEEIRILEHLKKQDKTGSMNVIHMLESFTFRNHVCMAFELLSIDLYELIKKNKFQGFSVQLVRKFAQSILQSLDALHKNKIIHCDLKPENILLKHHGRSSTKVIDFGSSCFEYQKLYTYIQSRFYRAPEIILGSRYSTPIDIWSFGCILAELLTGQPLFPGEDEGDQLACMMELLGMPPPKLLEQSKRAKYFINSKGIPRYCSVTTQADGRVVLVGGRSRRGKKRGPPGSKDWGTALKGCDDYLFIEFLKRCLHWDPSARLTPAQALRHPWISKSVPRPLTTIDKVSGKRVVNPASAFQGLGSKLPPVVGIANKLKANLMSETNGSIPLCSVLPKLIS", "assay": "Inhibition of human DYRK3 at 50 nM in presence of ATP by radiometric hotspot kinase assay relative to control"}, "[7]": {"target": "cAMP-dependent protein kinase catalytic subunit alpha (Homo sapiens, UniProt P17612)", "assay": "Inhibition of wild type PKAc alpha (unknown origin) using CREB KRREILSRRPSYR-biotinylated peptide as substrate incubated for 45 mins in presence of ATP by ELISA"}}}
{"compound": "Cn1cnc(Br)c1C1=CN(c2ncnc3[nH]cnc23)CCS1", "values": [{"measurement": "inhibition", "setting": "[1]", "value": 49, "unit": "%"}, {"measurement": "inhibition", "setting": "[2]", "value": 56, "unit": "%"}, {"measurement": "inhibition", "setting": "[3]", "value": 61, "unit": "%"}, {"measurement": "Kd", "setting": "[4]", "value": 3, "unit": "µM"}, {"measurement": "IC50", "setting": "[5]", "value": 1.04, "unit": "µM"}, {"measurement": "inhibition", "setting": "[6]", "value": 49, "unit": "%"}, {"measurement": "IC50", "setting": "[7]", "value": 1.1, "unit": "µM"}]}
{"compound": "Cn1cncc1C1=CN(c2ncnc3[nH]cnc23)CC[S+]1[O-]", "note": "(configuration not stated)", "values": [{"measurement": "IC50", "setting": "[5]", "value": "> 200", "unit": "µM"}]}
{"compound": "Cn1cncc1C1=CN(c2ncnc3[nH]cnc23)CCS1", "values": [{"measurement": "inhibition", "setting": "[1]", "value": 23, "unit": "%"}, {"measurement": "inhibition", "setting": "[2]", "value": 21, "unit": "%"}, {"measurement": "inhibition", "setting": "[3]", "value": 23, "unit": "%"}, {"measurement": "inhibition", "setting": "[6]", "value": 16, "unit": "%"}]}
{"compound": "Cn1cncc1C1=CN(c2ncnc3[nH]cnc23)CCS1(=O)=O", "values": [{"measurement": "IC50", "setting": "[5]", "value": "> 200", "unit": "µM"}]}
{"compound": "Cn1cncc1C1=CN(c2ncnc3[nH]c(=O)[nH]c23)CCS1", "values": [{"measurement": "Kd", "setting": "[4]", "value": 37, "unit": "µM"}, {"measurement": "IC50", "setting": "[5]", "value": 79, "unit": "µM"}, {"measurement": "IC50", "setting": "[7]", "value": 90, "unit": "µM"}]}
{"compound": "Cn1c(Br)nc(Br)c1C1=CN(c2ncnc3[nH]cnc23)CCS1", "values": [{"measurement": "IC50", "setting": "[5]", "value": "> 200", "unit": "µM"}]}
